According to patent publication US6329377A, “Ketomethylene group-containing cysteine and serine protease inhibitors” (Cephalon, Inc., priority 2000, dated 2001):

Columns and labels:
Assay type in all cases: biochemical
cathepsin L = biological target: T1, cathepsin L (Homo sapiens, UniProt P07711); assay: Inhibition of cathepsin L; settings: Cbz-Phe-Arg-AMC 0.006 mM; for inhibition at 1 µM: pH 6, 1 uM, read-out: Cat L % I @ 1 uM; for Cat L % I @ 1 uM: pH 6.0
T1 construct: purchased Calbiochem 219402
T1 sequence (P07711 114-288 limits assumed): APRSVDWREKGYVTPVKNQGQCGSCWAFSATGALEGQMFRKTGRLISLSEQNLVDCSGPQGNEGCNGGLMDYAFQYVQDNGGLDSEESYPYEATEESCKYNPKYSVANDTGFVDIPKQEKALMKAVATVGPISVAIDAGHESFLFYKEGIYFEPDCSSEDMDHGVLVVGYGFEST
T1 sequence (P07711 292-333 limits assumed): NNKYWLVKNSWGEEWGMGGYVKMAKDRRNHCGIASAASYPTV

cathepsin B = biological target: T2, cathepsin B (Homo sapiens, UniProt P07858); assay: Inhibition of cathepsin B; settings: Cbz-Phe-Arg-AMC 0.1 mM; for inhibition at 1 µM: pH 6, 1 uM, read-out: Cat B % I @ 1 uM; for Cat B % I @ 1 uM: pH 6.0
T2 construct: purchased Calbiochem 219364

thrombin = biological target: T3, thrombin (Homo sapiens, UniProt P00734); assay: Inhibition of thrombin; settings: 25 μM Bz-Phe-Val-Arg-AMC; for inhibition at 10 µM: pH 7.5, read-out: Thrombin % I @ 10 uM; for Thrombin % I @ 10 uM: pH 7.5
T3 construct: purchased Sigma Chem. Co. T-7009
Procedure: (§1) To evaluate inhibitory activity, stock solutions (40 times concentrated) of each compound to be tested were prepared in 100% anhydrous DMSO and 5 μL of each inhibitor preparation were aliquoted into each of three wells of a 96-well plate. Calpain I, prepared by a modification of the method of W. J. Lee et al. (Biochem. Internatl. 22: 163-171 (1990)), was diluted into assay buffer (i.e., 50 mM Tris, 50 mM NaCl, 1 mM EDTA, 1 mM EGTA, and 5 mM-mercaptoethanol, pH 7.5 including 0.2 mM Succ-Leu-Tyr-MNA) and 175 μL aliquoted into the same wells containing the independent inhibitor stocks as well as to positive control wells containing 5 μL DMSO, but no compound. To start the reaction, 20 μL of 50 mM CaCl2 in assay buffer was added to all wells of the plate, excepting three, which were used as background signal baseline controls. Substrate hydrolysis was monitored every 5 minutes for a total of 30 minutes using a Fluoroskan II fluorescence plate reader. Substrate hydrolysis in the absence of inhibitor was linear for up to 15 minutes.
(§2) Inhibition of calpain I activity was calculated as the percent decrease in the rate of substrate (S) hydrolysis in the presence of inhibitor (I) relative to the rate in its absence (o). Comparison between the inhibited and control rates was made within the linear range for substrate hydrolysis. For screening, compounds were tested at 10 μM. Compounds having 50% inhibition at 10 μM were considered active. The IC50s of inhibitors (concentration yielding 50% inhibition) were determined from the percent decrease in the rates of substrate hydrolysis in the presence of five to seven different concentrations of the test compound. The results were plotted as % inhibition versus log inhibitor concentration and the IC50 was calculated from linear regression of the data. Apparent second order rate constants were determined from analysis of reaction progress curves under pseudo-first order conditions. Each determination represents the means of three or more independent single cuvette analyses continually monitored via a Perkin-Elmer LS50B spectrofluorimeter. The rate of inhibition of hydrolysis was obtained by fitting the curve to the exponential equation (1):
(§3) Additionally, because α-chymotrypsin is not a calcium sensitive enzyme and is constitutively active, following addition of inhibitor stocks to the 96 well plates, 100 μl of a 2-fold concentrated stock of enzyme in dilution buffer was first added and the reaction started by addition of 100 μl of a 2-fold concentrated stock of substrate in assay buffer. Substrate hydrolysis was monitored every 5 minutes up to 30 minutes using a Fluoroskan II ([…]).
Inhibition of thrombin (Sigma Chem. Co. Cat. #T-7009) was evaluated as described for chymotrypsin except that the assay was performed in 50 mM Tris, 10 mM CaCl2, pH 7.5 and the substrate was 25 μM Bz-Phe-Val-Arg-AMC (Bachem cat#I-1080).

α-chymotrypsin = biological target: T4, α-chymotrypsin (Bos taurus, UniProt P00766); assay: Inhibition of α-chymotrypsin; settings: 0.03 mM Succ-Ala-Ala-Pro-Phe-AMC; for inhibition at 10 µM: pH 7.5, 10 μM, read-out: Chymotrypsin % I @; for Chymotrypsin % I @: 10 μM, pH 7.5
T4 construct: purchased Sigma Chem. Co. C-3142
Procedure: as §1, §2, §3

Calpain I = biological target: T5, Calpain I (Homo sapiens, UniProt P07384); assay: Inhibition of calpain I activity (IC50, fluorescence plate reader); settings: substrate 0.2 mM Succ-Leu-Tyr-MNA, pH 7.5
T5 construct: made in house
T5 sequence (P07384 1-714): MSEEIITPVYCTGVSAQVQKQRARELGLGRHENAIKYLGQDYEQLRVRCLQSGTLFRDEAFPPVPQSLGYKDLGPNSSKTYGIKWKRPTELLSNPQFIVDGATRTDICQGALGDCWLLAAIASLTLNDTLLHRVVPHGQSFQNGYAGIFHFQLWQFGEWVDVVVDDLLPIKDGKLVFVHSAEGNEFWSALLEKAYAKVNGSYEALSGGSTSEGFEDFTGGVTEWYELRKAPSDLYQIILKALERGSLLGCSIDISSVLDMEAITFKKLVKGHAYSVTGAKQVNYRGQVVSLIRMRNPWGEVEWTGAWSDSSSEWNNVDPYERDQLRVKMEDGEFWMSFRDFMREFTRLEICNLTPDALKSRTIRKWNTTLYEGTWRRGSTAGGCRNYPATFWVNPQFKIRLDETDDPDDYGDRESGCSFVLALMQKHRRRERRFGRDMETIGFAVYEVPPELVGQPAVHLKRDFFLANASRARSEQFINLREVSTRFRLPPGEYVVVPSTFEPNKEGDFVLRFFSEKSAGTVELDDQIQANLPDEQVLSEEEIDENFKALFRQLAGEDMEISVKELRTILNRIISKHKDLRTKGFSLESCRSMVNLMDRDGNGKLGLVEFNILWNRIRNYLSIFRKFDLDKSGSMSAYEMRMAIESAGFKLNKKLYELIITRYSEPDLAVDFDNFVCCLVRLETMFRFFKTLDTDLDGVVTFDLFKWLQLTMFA
T5 sequence (P04632 1-268 partner): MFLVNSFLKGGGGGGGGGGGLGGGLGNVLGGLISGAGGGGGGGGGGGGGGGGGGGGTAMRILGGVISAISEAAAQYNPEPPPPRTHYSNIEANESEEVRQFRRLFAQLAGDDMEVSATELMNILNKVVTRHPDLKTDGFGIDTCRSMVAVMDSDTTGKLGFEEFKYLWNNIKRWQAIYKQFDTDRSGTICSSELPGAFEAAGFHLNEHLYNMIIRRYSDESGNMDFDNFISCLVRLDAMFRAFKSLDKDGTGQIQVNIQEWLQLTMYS
Procedure: as §1
as §2, with “(1): […]” for “(1):”

Row | SMILES | inhibition at 1 µM (cathepsin L) | inhibition at 1 µM (cathepsin B) | inhibition at 10 µM (thrombin) | inhibition at 10 µM (α-chymotrypsin) | IC50 (Calpain I) | Cat L % I @ 1 uM (cathepsin L) | Cat B % I @ 1 uM (cathepsin B) | Chymotrypsin % I @ (α-chymotrypsin) | Thrombin % I @ 10 uM (thrombin)
1 | CCNC(=O)C(=O)C(CC)NC(=O)C(CC(=O)C1c2ccccc2Oc2ccccc21)CC(C)C (stereo not drawn) [Compound 8d, Xanthene-COCH2 CH(iBu.)CO-Abu-CONHEt] | 100% | 78% | 10% | 7% | 485 nM |  |  |  | 
2 | CC(C)CC(CC(=O)N1CCc2ccccc2C1)C(=O)N[C@H](C=O)Cc1ccccc1 (single isomer, unassigned) [Compound 16f-I, 2-THIQ-COCH2 CH(iBu)Cd-Phe-H] |  |  | 0% |  | 28 nM | 96% | 100% | 39% | 
3 | CCNC(=O)C(=O)C(CC)NC(=O)C(CC(=O)C(c1ccccc1)c1ccccc1)CC(C)C (stereo not drawn) [Compound 8c, Ph2 CHCOCH2 CH(iBu)CO-Abu-CONHEt] | 100% | 100% | 0% | 6% | 1730 nM |  |  |  | 
4 | CC(C)CC(CC(=O)C(c1ccccc1)c1ccccc1)C(=O)N[C@H](C=O)CC(C)C (stereo partly drawn) [Compound 16c, Ph2 CHCOCH2 CH(iBu)CO-Leu-H] | 100% | 97% | 1% | 62% | 50 nM |  |  |  | 
5 | CCNC(=O)C(=O)C(CC)NC(=O)C(CC(=O)[C@H](CC(C)C)NC(=O)OCc1ccccc1)CC(C)C (stereo partly drawn) [Compound 8e, Z-Leu-CH2 CH(iBu)CO-Abu-CONHEt] | 95% | 100% | 0% | 0% | 380 nM |  |  |  | 
6 | CCNC(=O)C(=O)C(CC(C)C)NC(=O)C(CC(=O)C1c2ccccc2Oc2ccccc21)CC(C)C (stereo not drawn) [Compound 8f, Xanthene-CO(CH2 CH(iBu)CO-Leu-CONHEt] | 100% | 98% | 13% | 93% | 130 nM |  |  |  | 
7 | CC(C)CC(CC(=O)N1CCN(c2ccccc2)CC1)C(=O)N[C@H](C=O)CC(C)C (single isomer, unassigned) [Compound 16g-II, Ph-Piperazine-COCH2 CH(iBu)CO-Leu-H] |  |  |  |  | 4500 nM | 35% | 67% | 0% | 0%
8 | CC(C)CC(CC(=O)N1CCc2ccccc2C1)C(=O)N[C@H](C=O)Cc1ccccc1 (single isomer, unassigned) [Compound 16f-II, 2-THIQ-COCH2 CH(iBu)CO-Phe-H (Diastereomer)] |  |  |  |  | 1000 nM | 52% | 71% | 12% | 0%
9 | CC(C)CC(CC(=O)CN(CC(C)C)C(=O)OCc1ccccc1)C(=O)N[C@H](C=O)CC(C)C (stereo partly drawn) [Compound 32, Z-N(iBu)CH2 COCH2 CH(iBu)CON H-Leu-H] |  |  |  |  | 71 nM |  |  |  | 
10 | CCNC(=O)C(=O)C(CC)NC(=O)C(CC(=O)[C@@H](CC)c1ccccc1)CC(C)C (stereo partly drawn) [Compound 8b, CH3 CH2 CH(Ph)COCH2 CH(iBu)CO-Abu-CONHEt] | 98% | 84% | 0% | 0% | 6690 nM |  |  |  | 
11 | CC(C)CC(CC(=O)N1CCN(c2ccccc2)CC1)C(=O)N[C@H](C=O)CC(C)C (single isomer, unassigned) [Compound 16g-I, Ph-Piperazine-COCH2 CH(iBu)CO-Leu-H] |  |  | 0% | 0% | 227 nM | 97% | 100% |  | 
12 | CCNC(=O)C(=O)C(CC)NC(=O)C(CC(=O)CCCCc1ccccc1)CC(C)C (stereo not drawn) [Compound 8a, Ph(CH2)4 COCH2 CH(iBu)CO-Abu-CONHEt] | 81% | 10% | 0% | 0% | 8440 nM |  |  |  | 
13 | CCC(C(=O)CC(CC(C)C)C(=O)N[C@H](C=O)CC(C)C)c1ccccc1 (stereo partly drawn) [Compound 16b, CH3 CH2 CH(Ph)COCH2 CH(iBu)CO-Leu-H] | 100% | 99% | 0% | 21% | 55 nM |  |  |  | 
14 | CC(C)CC(CC(=O)CCCCc1ccccc1)C(=O)N[C@H](C=O)CC(C)C (stereo partly drawn) [Compound 16a, Ph(CH2)4 COCH2 CH(iBu)CO-Leu-H] | 100% | 97% | 0% | 61% |  |  |  |  | 
15 | CC(C)CC(CC(=O)C1c2ccccc2Oc2ccccc21)C(=O)N[C@H](C=O)CC(C)C (stereo partly drawn) [Compound 16d, Xanthene-COCH2 CH(iBu)CO-Leu-H] | 100% | 76% | 25% | 98% |  |  |  |  | 
